{"source": "BindingDB's records for doi:10.1021/jm00164a044", "about": "(Niddk, 1990)", "data": [{"assay": "Muscarinic acetylcholine receptor binding affinity was determined using [3H]NMS for NG108-15 neuroblastoma cells", "units": {"Ki": "nM"}, "values": [{"smiles": "CN(CC#CCN1CCCC1)C(=O)CCCCCCCN", "Ki": 700}, {"smiles": "CN(CC#CCN1CCCC1)C(=O)CCCCCCN", "Ki": 3100}, {"smiles": "CC(=O)N(C)CC#CCN1CCCC1", "Ki": 4500}, {"smiles": "CN(CC#CCN1CCCC1)C(=O)CCCCCCCNC(=O)OC(C)(C)C", "Ki": 1900}]}]}
